Experimental data as given in patent US20250179065A1, “HDAC6 INHIBITORS AND USES THEREOF” (Eikonizo Therapeutics, Inc., priority 2022, published 2025).

Key:
[1] = biological target: Full length Human HDAC6 (Homo sapiens (Human), UniProt Q9UBN7); assay: Caliper endpoint assay for HDAC enzymatic activity (HDAC6); type: biochemical; conditions: for IC50: in vitro enzymatic, 30 min pre-incubation, 1 μM FAM-RHKK(Ac)-NH2 substrate; for Selectivity (6 v 8) (fold): ratio of HDAC8 IC50/HDAC6 IC50
[2] = biological target: Full length Human HDAC8 (Homo sapiens (Human), UniProt Q9BY41); assay: Caliper endpoint assay for HDAC enzymatic activity (HDAC8); type: biochemical; conditions: in vitro enzymatic, 30 min pre-incubation, 1 μM FAM-RHKK(TFAc)-NH2 substrate
Sequence of Full length Human HDAC8 (Q9BY41 whole entry): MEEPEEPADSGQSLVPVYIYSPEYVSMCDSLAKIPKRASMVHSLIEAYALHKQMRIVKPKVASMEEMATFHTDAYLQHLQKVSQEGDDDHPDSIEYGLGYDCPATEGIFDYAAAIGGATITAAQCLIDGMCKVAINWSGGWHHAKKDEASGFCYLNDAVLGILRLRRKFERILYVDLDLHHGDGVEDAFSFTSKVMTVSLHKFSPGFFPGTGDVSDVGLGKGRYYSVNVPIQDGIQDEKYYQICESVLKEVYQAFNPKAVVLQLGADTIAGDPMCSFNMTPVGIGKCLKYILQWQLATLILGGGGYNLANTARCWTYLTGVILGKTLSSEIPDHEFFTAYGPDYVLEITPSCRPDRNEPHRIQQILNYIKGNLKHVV

Sequence of Full length Human HDAC6 (Q9UBN7 whole entry): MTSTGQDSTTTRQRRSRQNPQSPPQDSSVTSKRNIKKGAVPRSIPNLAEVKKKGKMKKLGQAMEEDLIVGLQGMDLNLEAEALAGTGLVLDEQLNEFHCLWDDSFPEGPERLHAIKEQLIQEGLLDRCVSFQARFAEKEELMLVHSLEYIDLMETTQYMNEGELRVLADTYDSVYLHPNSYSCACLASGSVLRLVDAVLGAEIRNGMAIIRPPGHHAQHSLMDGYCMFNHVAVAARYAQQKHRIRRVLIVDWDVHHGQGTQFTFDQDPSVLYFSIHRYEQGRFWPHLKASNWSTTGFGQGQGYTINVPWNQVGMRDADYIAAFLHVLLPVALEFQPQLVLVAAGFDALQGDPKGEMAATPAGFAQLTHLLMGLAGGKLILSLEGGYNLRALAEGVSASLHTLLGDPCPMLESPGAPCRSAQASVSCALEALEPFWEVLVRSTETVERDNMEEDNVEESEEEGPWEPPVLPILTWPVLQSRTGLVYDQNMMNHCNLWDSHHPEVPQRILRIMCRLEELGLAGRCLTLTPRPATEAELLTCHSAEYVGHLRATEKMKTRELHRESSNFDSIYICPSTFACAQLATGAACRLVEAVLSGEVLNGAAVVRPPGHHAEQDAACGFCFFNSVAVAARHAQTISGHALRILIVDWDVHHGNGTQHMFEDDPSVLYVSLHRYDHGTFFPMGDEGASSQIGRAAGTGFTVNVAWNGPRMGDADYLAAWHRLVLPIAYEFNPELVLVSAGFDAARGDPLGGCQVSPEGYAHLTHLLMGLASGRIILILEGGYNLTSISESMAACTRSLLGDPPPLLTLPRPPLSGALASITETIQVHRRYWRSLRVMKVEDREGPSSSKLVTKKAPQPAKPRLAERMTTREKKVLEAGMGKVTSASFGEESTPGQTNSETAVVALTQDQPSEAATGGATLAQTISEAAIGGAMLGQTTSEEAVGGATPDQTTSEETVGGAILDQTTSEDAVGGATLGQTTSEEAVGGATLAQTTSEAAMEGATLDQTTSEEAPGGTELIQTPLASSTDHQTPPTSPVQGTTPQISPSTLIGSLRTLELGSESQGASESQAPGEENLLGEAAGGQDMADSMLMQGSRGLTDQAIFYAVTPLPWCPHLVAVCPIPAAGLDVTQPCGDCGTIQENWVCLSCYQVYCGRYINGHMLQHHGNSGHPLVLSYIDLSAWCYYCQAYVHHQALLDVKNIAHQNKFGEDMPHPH

Row | SMILES | IC50 [1] [nM] | Selectivity (6 v 8) (fold) [1] | IC50 [2] [µM]
1 | O=C(NO)c1cnc2c(c1)CCN([C@@H]1CCCC3(CCC3)C1)C2 (single isomer, unassigned) [Compound 194] | 100 to 1000 | III (III: >10-100) | 10 to 100
2 | O=C(NO)c1cnc2c(c1)CCN([C@H]1CCCC3(CCC3)C1)C2 (single isomer, unassigned) [Compound 195] | 1 to 100 | IV (IV: >100-1000) | 1 to 10
3 | O=C(NO)c1cnc2c(c1)CCN(C1CC3(CCCNC3)C1)C2 (single isomer, unassigned) [Compound 341] |  |  | 10 to 100
4 | O=C(NO)c1cnc2c(c1)CCN(C1CC3(CCCNC3)C1)C2 (single isomer, unassigned) [Compound 342] |  |  | 10 to 100
5 | CN1CCC[C@]2(C1)C[C@@H](N1CCc3cc(C(=O)NO)cnc3C1)C2 (single isomer, unassigned) [Compound 343] | 100 to 1000 | III (III: >10-100) | 1 to 10
6 | CN1CCC[C@]2(C1)C[C@H](N1CCc3cc(C(=O)NO)cnc3C1)C2 (single isomer, unassigned) [Compound 344] | 100 to 1000 | III (III: >10-100) | 1 to 10
7 | O=C(NO)c1cnc2c(c1)CCN([C@H]1CCC3(CCC3)C1)C2 (single isomer, unassigned) [Compound 383] | 1 to 100 | IV (IV: >100-1000) | 10 to 100
8 | O=C(NO)c1cnc2c(c1)CCN(CC13CC4CC(CC(C4)O1)C3)C2 [Compound 14] | 1 to 100 | IV (IV: >100-1000) | 10 to 100
9 | O=C(NO)c1cnc2c(c1)CCN(C1CC3(CCCCC3)C1)C2 [Compound 16, N-hydroxy-7-(spiro[3.5]nonan-2-yl)-5,6,7,8-tetrahydro-1,7-naphthyridine-3-carboxamide] | 1 to 100 | IV (IV: >100-1000) | 10 to 100
10 | O=C(NO)c1cnc2c(c1)CCN(C1CC3(CCOCC3)C1)C2 [Compound 179, N-hydroxy-7-(7-oxaspiro[3.5]nonan-2-yl)-5,6,7,8-tetrahydro-1,7-naphthyridine-3-carboxamide] | 100 to 1000 | III (III: >10-100) | 1 to 10
11 | O=C(NO)c1cnc2c(c1)CCN(C1CC3(CCCC3)C1)C2 [Compound 183, N-hydroxy-7-(spiro[3.4]octan-2-yl)-5,6,7,8-tetrahydro-1,7-naphthyridine-3-carboxamide] | 1 to 100 | IV (IV: >100-1000) | 1 to 10
12 | O=C(NO)c1cnc2c(c1)CCN([C@H]1C[C@@]3(CCOC3)C1)C2 [Compound 188, N-hydroxy-7-((2r,4r)-6-oxaspiro[3.4]octan-2-yl)-5,6,7,8-tetrahydro-1,7-naphthyridine-3-carboxamide] | 100 to 1000 | IV (IV: >100-1000) | 10 to 100
13 | O=C(NO)c1cnc2c(c1)CCN([C@H]1C[C@]3(CCOC3)C1)C2 [Compound 189, N-hydroxy-7-((2s,4s)-6-oxaspiro[3.4]octan-2-yl)-5,6,7,8-tetrahydro-1,7-naphthyridine-3-carboxamide] | 100 to 1000 | IV (IV: >100-1000) | 10 to 100
14 | O=C(NO)c1cnc2c(c1)CCN(C1CCC3(CCC3)CC1)C2 [Compound 192, N-hydroxy-7-(spiro[3.5]nonan-7-yl)-5,6,7,8-tetrahydro-1,7-naphthyridine-3-carboxamide] | 1 to 100 | IV (IV: >100-1000) | 1 to 10
15 | O=C(NO)c1cnc2c(c1)CCN(C1CC3(CCNCC3)C1)C2 [Compound 197, N-hydroxy-7-(7-azaspiro[3.5]nonan-2-yl)-5,6,7,8-tetrahydro-1,7-naphthyridine-3-carboxamide] | 100 to 1000 | III (III: >10-100) | 10 to 100
16 | CN1CCC2(CC1)CC(N1CCc3cc(C(=O)NO)cnc3C1)C2 [Compound 198, N-hydroxy-7-(7-methyl-7-azaspiro[3.5]nonan-2-yl)-5,6,7,8-tetrahydro-1,7-naphthyridine-3-carboxamide] | 100 to 1000 | III (III: >10-100) | 1 to 10
17 | CC(=O)N1CCC2(CC1)CC(N1CCc3cc(C(=O)NO)cnc3C1)C2 [Compound 199, 7-(7-acetyl-7-azaspiro[3.5]nonan-2-yl)-N-hydroxy-5,6,7,8-tetrahydro-1,7-naphthyridine-3-carboxamide] | 100 to 1000 | III (III: >10-100) | 10 to 100
18 | O=C(NO)c1cnc2c(c1)CCN(C1CC3(CNC3)C1)C2 [Compound 289] | 100 to 1000 | III (III: >10-100) | 10 to 100
19 | CN1CCC2(CCC(N3CCc4cc(C(=O)NO)cnc4C3)C2)CC1 (centres unmarked) [Compound 417] | 100 to 1000 | III (III: >10-100) | 1 to 10
20 | O=C(NO)c1cc2c(cn1)CN(C1CC3(CCCCC3)C1)CC2 [DDD] | 1000 to 10000 | III (III: >10-100) | 10 to 100
21 | O=C(NO)c1ccc2c(n1)CCN(C1CC3(CCCCC3)C1)C2 [EEE] | 100 to 1000 | V (V: >1000) | > 100
22 | O=C(NO)c1ncc2c(n1)CCN(C1CC3(CCCCC3)C1)C2 [FFF, N-hydroxy-6-(spiro[3.5]nonan-2-yl)-5,6,7,8-tetrahydropyrido[4,3-d]pyrimidine-2-carboxamide] | > 100000 | II (II: >1-10) | > 100
